Experimental data as given in US7101888B2, “Oral liquid tolterodine composition” (Pharmacia & UpJohn Company, priority 2002, dated 2006).

Key:
[1] = system: muscarinic receptors of the salivary gland; conditions: compared with oxybutynin; cited from earlier work
[2] = Chemical stability of tolterodine in aqueous media; type: physicochemical

SMILES: Cc1ccc(O)c([C@H](CCN(C(C)C)C(C)C)c2ccccc2)c1 [tolterodine, (R)-N,N-diisopropyl-3-(2-hydroxy-5-methylphenyl)-3-phenylpropanamine]
- affinity for the muscarinic receptors of the salivary gland relative to oxybutynin [1]: about eight times lower
- stability in aqueous solutions of tolterodine salts ([2]; alkaline pH): unstable
- pH of optimum stability ([2]; aqueous solutions of tolterodine salts): about 4
- chemical stability in aqueous media ([2]; neutral to alkaline pH levels): chemical instability
